Results on 1 compound are retold here after PMC3105069, “Nicotinic Acid Receptor Abnormalities in Human Skin Cancer: Implications for a Role in Epidermal Differentiation” (PLoS ONE, 2011).

This assay deals with T1, GPR109B (Homo sapiens, UniProt P49019).
T1 construct: gene HCAR3
T1 sequence (P49019 whole entry): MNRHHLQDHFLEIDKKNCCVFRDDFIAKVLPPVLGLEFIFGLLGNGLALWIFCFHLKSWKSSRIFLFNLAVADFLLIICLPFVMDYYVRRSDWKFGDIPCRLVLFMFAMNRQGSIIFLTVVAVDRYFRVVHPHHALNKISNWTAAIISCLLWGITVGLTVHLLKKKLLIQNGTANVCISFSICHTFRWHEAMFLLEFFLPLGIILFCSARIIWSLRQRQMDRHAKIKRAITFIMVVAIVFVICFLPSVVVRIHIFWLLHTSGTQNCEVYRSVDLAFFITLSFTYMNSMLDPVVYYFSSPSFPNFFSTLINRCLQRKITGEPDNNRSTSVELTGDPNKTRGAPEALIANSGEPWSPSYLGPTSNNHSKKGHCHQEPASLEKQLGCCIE

Take `O=C(O)c1cccnc1` [nicotinic acid]: the midpoint of the response, the EC50, lay at 25 µM.
